According to US20250059188A1, “ARYLSULPHONAMIDE COMPOUNDS” (Anaxis Pharma Pty Ltd, priority 2021, published 2025):

How the values were obtained:
U937 cells = experiment: Counter screen: U937 cell viability without TSQ cocktail (off-target effect); set-up: species or system human; settings: Homo sapiens, U-937, compound without TSQ cocktail, read-out: Off-target effect (IC50 cell-based assay)
Procedure, shortened: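 U937 cells (20,000/well) exposed to compound (10-point 1:3 titration from 36 μM, 0.3% DMSO) without TSQ cocktail for 48 h at 37 °C/5% CO2. Viability read as ATP by CellTiter-Glo luminescence; IC50 from 4-parameter logistic fit.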

human RIPK3 = human RIPK3 (Homo sapiens (Human), UniProt Q9Y572); experiment: KINOMEscan binding assay, human RIPK3; settings: equilibrium dissociation constant
Procedure, shortened: (§1)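 KINOMEscan competition binding using kinase-tagged T7 phage or HEK-293-produced DNA-tagged protein captured on ligand beads, with eluted protein quantified by qPCR. Compounds were run as an 11-point 3-fold series, top 30,000 nM, in 1% DMSO. Kd was fitted with the Hill equation, slope fixed at −1.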

human MLKL (full length) = human MLKL (full length) (Homo sapiens (Human), UniProt Q8NB16); experiment: KINOMEscan binding assay, human MLKL (full length); settings: equilibrium dissociation constant
Procedure, shortened: as §1

human RIPK1 = human RIPK1 (Homo sapiens (Human), UniProt Q13546); experiment: KINOMEscan binding assay, human RIPK1; settings: equilibrium dissociation constant
Procedure, shortened: as §1

[1] = system: U937 human histiocytic leukemia cell line; experiment: Inhibition of TSQ induced necroptosis in U937 cells (CellTitre-Glo); settings: Homo sapiens, U-937, TSQ cocktail (TNF, Smac mimetic, Q-VD-OPh), 48 hours, read-out: Inhibition of TSQ-induced necroptosis (IC50 cell-based assay)
Procedure, shortened: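 U937 cells (20000/well) treated with compound (10-point, 1:3 from 36 μM, 0.3% DMSO) plus TSQ cocktail (hTNF-Fc 100 ng/ml, Smac mimetic 500 nM, Q-VD-OPh 10 μM), 48 h at 37 °C. Viability by CellTiter-Glo luminescence; IC50 from 4-parameter logistic fit. Counter screen: same cells without TSQ.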

Sequence of human RIPK3 (Q9Y572 whole entry): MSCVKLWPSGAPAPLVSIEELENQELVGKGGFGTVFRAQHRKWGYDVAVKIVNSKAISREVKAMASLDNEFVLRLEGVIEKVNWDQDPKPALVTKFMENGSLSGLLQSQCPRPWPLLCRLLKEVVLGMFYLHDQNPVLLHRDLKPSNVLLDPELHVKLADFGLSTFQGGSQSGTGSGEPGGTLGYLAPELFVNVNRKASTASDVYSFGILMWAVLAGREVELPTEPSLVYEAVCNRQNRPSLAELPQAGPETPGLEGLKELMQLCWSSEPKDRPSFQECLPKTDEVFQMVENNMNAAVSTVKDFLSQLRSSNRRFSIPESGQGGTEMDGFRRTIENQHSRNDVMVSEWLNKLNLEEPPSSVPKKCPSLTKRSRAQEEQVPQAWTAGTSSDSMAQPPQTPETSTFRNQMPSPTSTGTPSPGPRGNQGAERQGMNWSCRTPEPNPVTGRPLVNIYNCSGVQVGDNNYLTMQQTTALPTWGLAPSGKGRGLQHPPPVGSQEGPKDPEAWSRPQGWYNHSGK
Sequence of human RIPK1 (Q13546 whole entry): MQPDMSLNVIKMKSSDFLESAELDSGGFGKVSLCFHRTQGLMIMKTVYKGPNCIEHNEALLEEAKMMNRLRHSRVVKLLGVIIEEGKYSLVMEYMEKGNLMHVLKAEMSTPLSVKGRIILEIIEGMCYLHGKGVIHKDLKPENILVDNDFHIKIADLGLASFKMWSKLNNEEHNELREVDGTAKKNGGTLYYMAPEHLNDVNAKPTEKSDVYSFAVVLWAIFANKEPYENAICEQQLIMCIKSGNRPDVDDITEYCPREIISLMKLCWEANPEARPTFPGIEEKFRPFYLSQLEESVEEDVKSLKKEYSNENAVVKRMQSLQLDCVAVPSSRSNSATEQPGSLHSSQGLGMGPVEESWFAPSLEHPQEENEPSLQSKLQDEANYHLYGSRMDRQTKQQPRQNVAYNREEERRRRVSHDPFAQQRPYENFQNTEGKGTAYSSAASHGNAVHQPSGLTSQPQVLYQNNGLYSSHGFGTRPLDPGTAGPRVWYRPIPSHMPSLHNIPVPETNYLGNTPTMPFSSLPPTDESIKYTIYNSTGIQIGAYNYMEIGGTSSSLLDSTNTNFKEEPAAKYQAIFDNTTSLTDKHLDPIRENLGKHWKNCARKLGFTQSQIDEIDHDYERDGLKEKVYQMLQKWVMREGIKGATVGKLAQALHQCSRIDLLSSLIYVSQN
Sequence of human MLKL (full length) (Q8NB16 whole entry): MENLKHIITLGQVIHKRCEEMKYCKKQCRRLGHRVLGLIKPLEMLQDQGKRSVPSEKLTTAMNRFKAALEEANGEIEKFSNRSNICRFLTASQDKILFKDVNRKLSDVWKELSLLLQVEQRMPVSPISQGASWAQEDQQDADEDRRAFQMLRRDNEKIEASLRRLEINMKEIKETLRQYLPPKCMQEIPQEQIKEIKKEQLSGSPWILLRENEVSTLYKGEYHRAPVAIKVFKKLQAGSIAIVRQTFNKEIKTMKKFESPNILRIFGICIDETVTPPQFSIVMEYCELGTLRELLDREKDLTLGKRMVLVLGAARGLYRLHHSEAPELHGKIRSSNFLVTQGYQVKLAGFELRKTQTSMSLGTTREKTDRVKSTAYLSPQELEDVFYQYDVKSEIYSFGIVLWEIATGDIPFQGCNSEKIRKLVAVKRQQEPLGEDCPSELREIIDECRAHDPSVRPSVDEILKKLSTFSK

Row | SMILES | IC50 (U937 cells) [nM] | Kd (human RIPK3) [nM] | Kd (human MLKL (full length)) [nM] | Kd (human RIPK1) [nM] | IC50 [1] [nM]
1 | C[C@H](Oc1cc(-c2nn(C)c3c(-c4ccc(Cl)cc4)cnc(N)c23)ccc1NS(=O)(=O)C(F)F)c1ccc(F)cc1 [Compound 87, (S)-N-(4-(4-amino-7-(4-chlorophenyl)-1-methyl-1H-pyrazolo[4,3-c]pyridin-3-yl)-2-(1-(4-fluorophenyl)ethoxy)phenyl)-1,1-difluoromethanesulfonamide] | > 10000 | > 10000 | 1 to 100 | > 10000 | 1000 to 10000
2 | C[C@H](Oc1cc(-c2nn(C)c3c(-c4ccccc4)cnc(N)c23)ccc1NS(=O)(=O)C(F)F)c1ccc(F)cc1 [Compound 86, (S)-N-(4-(4-amino-1-methyl-7-phenyl-1H-pyrazolo[4,3-c]pyridin-3-yl)-2-(1-(4-fluorophenyl)ethoxy)phenyl)-1,1-difluoromethanesulfonamide] | > 10000 | > 10000 | 1 to 100 | > 10000 | 10 to 1000
3 | Cn1nc(-c2ccc(NS(=O)(=O)C(F)F)c(OC3(c4ccc(F)cc4)CC3)c2)c2c(N)ncc(-c3cnn(C4CCOCC4)c3)c21 [Compound 140, N-(4-(4-amino-1-methyl-7-(1-(tetrahydro-2H-pyran-4-yl)-1H-pyrazol-4-yl)-1H-pyrazolo[4,3-c]pyridin-3-yl)-2-(1-(4-fluorophenyl)cyclopropoxy)phenyl)-1,1-difluoromethanesulfonamide] | > 10000 | > 10000 | 1 to 100 | > 10000 | 10 to 1000
4 | C[C@H](Oc1cc(-c2nn(C)c3c(-c4cc(C#N)n(C)c4)cnc(N)c23)ccc1NS(=O)(=O)C(F)F)c1ccc(F)cc1 [Compound 83, (S)-N-(4-(4-amino-7-(5-cyano-1-methyl-1H-pyrrol-3-yl)-1-methyl-1H-pyrazolo[4,3-c]pyridin-3-yl)-2-(1-(4-fluorophenyl)ethoxy)phenyl)-1,1-difluoromethanesulfonamide] | > 10000 | > 10000 | 1 to 100 | > 10000 | 10 to 1000
5 | C[C@H](Oc1cc(-c2nn(C)c3c(-c4cnn(C5CCN(C)C5)c4)cnc(N)c23)ccc1NS(=O)(=O)C(F)F)c1ccc(F)cc1 (stereo partly drawn) [Compound 93, N-(4-(4-amino-1-methyl-7-(1-(1-methylpyrrolidin-3-yl)-1H-pyrazol-4-yl)-1H-pyrazolo[4,3-c]pyridin-3-yl)-2-((S)-1-(4-fluorophenyl)ethoxy)phenyl)-1,1-difluoromethanesulfonamide] | > 10000 | > 10000 | < 1 | > 10000 | 10 to 1000
6 | CC(C)N1CC(n2cc(-c3cnc(N)c4c(-c5ccc(NS(=O)(=O)C(F)F)c(O[C@@H](C)c6ccc(F)cc6)c5)nn(C)c34)cn2)C1 [Compound 76, (S)-N-(4-(4-amino-7-(1-(1-isopropylazetidin-3-yl)-1H-pyrazol-4-yl)-1-methyl-1H-pyrazolo[4,3-c]pyridin-3-yl)-2-(1-(4-fluorophenyl)ethoxy)phenyl)-1,1-difluoromethanesulfonamide] | > 10000 | > 10000 | < 1 | > 10000 | < 10
7 | C[C@H](Oc1cc(-c2nn(C)c3c(-c4cnn(C5(C#N)CC5)c4)cnc(N)c23)ccc1NS(=O)(=O)C(F)F)c1ccc(F)cc1 [Compound 96, (S)-N-(4-(4-amino-7-(1-(1-cyanocyclopropyl)-1H-pyrazol-4-yl)-1-methyl-1H-pyrazolo[4,3-c]pyridin-3-yl)-2-(1-(4-fluorophenyl)ethoxy)phenyl)-1,1-difluoromethanesulfonamide] | > 10000 | > 10000 | < 1 | > 10000 | 10 to 1000
8 | C[C@H](Oc1cc(-c2cnn3c(-c4ccncc4)cnc(N)c23)ccc1NS(=O)(=O)C(F)F)c1ccc(F)cc1 [Compound 39, (S)-N-(4-(4-amino-7-(pyridin-4-yl)pyrazolo[1,5-a]pyrazin-3-yl)-2-(1-(4-fluorophenyl)ethoxy)phenyl)-1,1-difluoromethanesulfonamide] | > 10000 | > 10000 | < 1 | > 10000 | 10 to 1000
